According to patent US4278595A, “Orally active MIF analogs with an effect on the central nervous system” (Vega Laboratories, Inc., priority 1979, dated 1981):
Where a SMILES comes first, the peptide text is derived from it. [ ]: non-standard residue; d: D form. pGlu = O=C1CC[C@@H](C(=O)O)N1

Tests used:
Assay type in all cases: in vivo, rat
[1] = test system: male Sprague-Dawley rats with unilateral 6-hydroxy-Dopamine lesion in the substantia nigra; assay: Duration of L-DOPA-reversed rotational behavior in rats with unilateral 6-hydroxy-Dopamine lesion of the substantia nigra (third series)
Procedure: The MIF analogs were tested for "Parkinsonion" locomotor behavior response by three different test procedures. In the third series of tests, male Sprague-Dawley rats received a unilateral chemical lesion (by injection of 6-hydroxy-Dopamine) in the substantia nigra, which is followed by rotational movement. When L-DOPA is given i.p. (in two doses, 13 and 26 mg/kg) the direction of rotational movement is reversed, and the duration of the reversed rotational motion was measured in minutes. The same doses of L-DOPA were then given in the experimental groups in combination with 2 mg/kg of either MIF or the MIF analogs, all i.p., or by gastric tube in a dose of 4 mg/kg, and the duration, in minutes, of reversed rotational behavior was observed.

[2] = test system: reserpinized male Long-Evans rats; assay: Locomotor activity of reserpinized rats after intraventricular administration (first series); settings: rats reserpinized i.p. 10 mg/kg
Procedure: (§1) The MIF analogs were tested for "Parkinsonion" locomotor behavior response by three different test procedures.
In the first series of tests, male Long-Evans rats were prepared with a cannula fixed from the exterior to the lateral ventricle for direct intraventricular administration. The rats were reserpinized i.p. (10 mg/kg), and then MIF or MIF analogs, were given directly into the CSF. Activity of the rats was measured in counts/10 minutes with a digital printout activity meter (Columbus Instruments, model PB 5244, Columbus, Ohio). The results of these tests are as follows

[3] = test system: reserpinized male Long-Evans rats; assay: L-DOPA potentiation: locomotor activity of reserpinized rats given agent i.p. with Carbi-DOPA and L-DOPA (second series); settings: 2 mg/kg i.p. with 10 mg/kg Carbi-DOPA and 100 mg/kg L-DOPA
Procedure: as §1
In the second series of tests, male Long-Evans rats prepared and reserpinized as described for the first series, were treated i.p. with 2 mg/kg of MIF or MIF analog, 10 mg/kg of Carbi-DOPA, a competitive inhibitor of DOPA-decarboxylase (to prolong the L-DOPA effect), and 100 mg/kg of L-DOPA. The control group received the latter two substances, but no MIF or MIF analog. Activity of the rats was measured, in counts/10 minutes with a digital printout activity meter, at 15, 35, 55, 75, 95 and 105 minutes after injection.

[4] = Injection: L-DOPA i.p. (13 and 26 mg/kg) alone or in combination with 2 mg/kg MIF or analog i.p.
[5] = Oral: L-DOPA i.p. (13 and 26 mg/kg) alone or in combination with 4 mg/kg MIF or analog by gastric tube
[6] = 10 ng directly into the CSF (lateral ventricle)
[7] = 100 ng directly into the CSF (lateral ventricle)

Row | SMILES | Duration of Reversed Rotational Behavior [1, 4] [min] | Duration of Reversed Rotational Behavior [1, 5] [min] | % Increase in Activity, Counts/10 Minutes [2, 6] | % Increase in Activity, Counts/10 Minutes [2, 7] | % Increase in Activity, counts/10 min. ([3]; 15 min. after injection) [%] | % Increase in Activity, counts/10 min. ([3]; 35 min. after injection) [%] | % Increase in Activity, counts/10 min. ([3]; 55 min. after injection) [%] | % Increase in Activity, counts/10 min. ([3]; 75 min. after injection) [%] | % Increase in Activity, counts/10 min. ([3]; 95 min. after injection) [%] | % Increase in Activity, counts/10 min. ([3]; 105 min. after injection) [%]
1 | N[C@@H](Cc1ccc(O)c(O)c1)C(=O)O [L-DOPA] | 38 ± 3.4 | 38 ± 3.4 | – | – | – | – | – | – | – | –
2 | CC(C)C[C@H](NC(=O)[C@@H]1CCCN1)C(=O)NCC(N)=O [MIF, Pro--L--Leu--Gly--NH2, reference compound] (H-Pro-Leu-Gly-NH2) | 55 ± 6.2 | 58 ± 5.3 | No effect | No effect | – | – | – | – | – | –
3 | CC(C)C[C@@H](NC(=O)[C@@H]1CCC(=O)N1)C(=O)NCC(N)=O [pGlu--D--Leu--Gly--NH2] ([pGlu]-[dL]-Gly-NH2) | 96 ± 7.9 | 110 ± 9.3 | 240% | 360% | 126 | 538 | 2450 | 2036 | 1035 | 478
